Where two headings read alike, the source gives them in different places.
Legend:
[1] = tested on: Staphulococcus aureus (ATCC 29213); test: Minimum inhibitory concentration (MIC) assay, Example 33; format: cell-based, Staphylococcus aureus; details: Staphylococcus aureus
Outline: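 In CAMHB, 2-fold compound series meet bacteria from fresh isolated colonies, turbidity-adjusted to OD600 0.08-0.13 and diluted 1:100 (2× inoculum). Incubation: 35° C. Endpoint: MIC per CLSI.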

[2] = tested on: Candida albicans; test: Extended time kill study, Example 34 (0 to 24 h); format: cell-based
Outline: (§1)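 Strain suspensions prepared as for MIC testing were mixed 1:1 with compound solution at higher multiples of MIC. Samples taken over 0 to 24 h were diluted in test medium and plated on agar, and colonies were counted after 24–48 h incubation.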

[3] = tested on: Pseudomonas aeruginosa; test: Extended time kill study, Example 34 (0 to 24 h); format: cell-based
Outline: as §1

[4] = tested on: Aspergillus niger; test: Extended time kill study, Example 34 (0 to 24 h); format: cell-based
Outline: as §1

[5] = tested on: Staphylococcus aureus; test: Extended time kill study, Example 34 (0 to 24 h); format: cell-based
Outline: as §1

Structure (SMILES): CCCCCCCCCCCCOC(=O)C(C)NCCO.Cl (stereo not drawn) [Nex-61, Dodecyl 2-((2-hydroxyethyl)amino)propanoate hydrochloride]
- MIC ([1]; ATCC29213, Table 19 summary, read-out: MIC): 50 µg/mL
- MIC ([1]; ATCC29213, n = 1, read-out: MIC S. aureus): 50 µg/mL
- MIC ([1]; ATCC29213, n = 2, read-out: MIC S. aureus): 50 µg/mL
- Viable counts in Log10 CFU/mL ([2]; 1 × MIC, 1 h): 5.37 Log10 CFU/mL
- Viable counts in Log10 CFU/mL ([2]; 1 × MIC, 2 h): 5.37 Log10 CFU/mL
- Viable counts in Log10 CFU/mL ([2]; 1 × MIC, 4 h): 5.32 Log10 CFU/mL
- Viable counts in Log10 CFU/mL ([2]; 1 × MIC, 6 h): 5.54 Log10 CFU/mL
- Viable counts in Log10 CFU/mL ([2]; 1 × MIC, 24 h): >6 Log10 CFU/mL
- Viable counts in Log10 CFU/mL ([2]; 1 × MIC, 0 h): 5.43 Log10 CFU/mL
- Viable counts in Log10 CFU/mL ([2]; 2 × MIC, 1 h): <3 Log10 CFU/mL
- Viable counts in Log10 CFU/mL ([2]; 2 × MIC, 2 h): <3 Log10 CFU/mL
- Viable counts in Log10 CFU/mL ([2]; 2 × MIC, 4 h): <2.70 Log10 CFU/mL
- Viable counts in Log10 CFU/mL ([2]; 2 × MIC, 6 h): <2.70 Log10 CFU/mL
- Viable counts in Log10 CFU/mL ([2]; 2 × MIC, 24 h): >6 Log10 CFU/mL
- Viable counts in Log10 CFU/mL ([2]; 2 × MIC, 0 h): 5.48 Log10 CFU/mL
- Viable counts in Log10 CFU/mL ([2]; 4 × MIC, 1 h): <3 Log10 CFU/mL
- Viable counts in Log10 CFU/mL ([2]; 4 × MIC, 2 h): <3 Log10 CFU/mL
- Viable counts in Log10 CFU/mL ([2]; 4 × MIC, 4 h): <2.70 Log10 CFU/mL
- Viable counts in Log10 CFU/mL ([2]; 4 × MIC, 6 h): <2.70 Log10 CFU/mL
- Viable counts in Log10 CFU/mL ([2]; 4 × MIC, 24 h): <1 Log10 CFU/mL
- Viable counts in Log10 CFU/mL ([2]; 4 × MIC, 0 h): 5.39 Log10 CFU/mL
- Viable counts, Pseudomonas aeruginosa time kill study ([3]; 1 × MIC, 1 h): <1 Log10 CFU/mL
- Viable counts, Pseudomonas aeruginosa time kill study ([3]; 1 × MIC, 2 h): <1 Log10 CFU/mL
- Viable counts, Pseudomonas aeruginosa time kill study ([3]; 1 × MIC, 4 h): <1 Log10 CFU/mL
- Viable counts, Pseudomonas aeruginosa time kill study ([3]; 1 × MIC, 6 h): <1 Log10 CFU/mL
- Viable counts, Pseudomonas aeruginosa time kill study ([3]; 1 × MIC, 24 h): <1 Log10 CFU/mL
- Viable counts, Pseudomonas aeruginosa time kill study ([3]; 1×MIC, time 0): 5.28 Log10 CFU/mL
- Viable counts, Pseudomonas aeruginosa time kill study ([3]; 2 × MIC, 1 h): <1 Log10 CFU/mL
- Viable counts, Pseudomonas aeruginosa time kill study ([3]; 2 × MIC, 2 h): <1 Log10 CFU/mL
- Viable counts, Pseudomonas aeruginosa time kill study ([3]; 2 × MIC, 4 h): <1 Log10 CFU/mL
- Viable counts, Pseudomonas aeruginosa time kill study ([3]; 2 × MIC, 6 h): <1 Log10 CFU/mL
- Viable counts, Pseudomonas aeruginosa time kill study ([3]; 2 × MIC, 24 h): <1 Log10 CFU/mL
- Viable counts, Pseudomonas aeruginosa time kill study ([3]; 2 × MIC, time 0): 5.29 Log10 CFU/mL
- Viable counts, Pseudomonas aeruginosa time kill study ([3]; 4 × MIC, 1 h): <1 Log10 CFU/mL
- Viable counts, Pseudomonas aeruginosa time kill study ([3]; 4 × MIC, 2 h): <1 Log10 CFU/mL
- Viable counts, Pseudomonas aeruginosa time kill study ([3]; 4 × MIC, 4 h): <1 Log10 CFU/mL
- Viable counts, Pseudomonas aeruginosa time kill study ([3]; 4 × MIC, 6 h): <1 Log10 CFU/mL
- Viable counts, Pseudomonas aeruginosa time kill study ([3]; 4 × MIC, 24 h): <1 Log10 CFU/mL
- Viable counts, Pseudomonas aeruginosa time kill study ([3]; 4 × MIC, time 0): 5.26 Log10 CFU/mL
- Viable counts in Log10 CFU/mL ([4]; 1 × MIC, 1 h): 5.48 Log10 CFU/mL
- Viable counts in Log10 CFU/mL ([4]; 1 × MIC, 2 h): 5.36 Log10 CFU/mL
- Viable counts in Log10 CFU/mL ([4]; 1 × MIC, 4 h): 5.18 Log10 CFU/mL
- Viable counts in Log10 CFU/mL ([4]; 1 × MIC, 6 h): 4.95 Log10 CFU/mL
- Viable counts in Log10 CFU/mL ([4]; 1 × MIC, 24 h): 4.48 Log10 CFU/mL
- Viable counts in Log10 CFU/mL ([4]; 1 × MIC, 0 h): 5.28 Log10 CFU/mL
- Viable counts in Log10 CFU/mL ([4]; 2 × MIC, 1 h): 5.52 Log10 CFU/mL
- Viable counts in Log10 CFU/mL ([4]; 2 × MIC, 2 h): 5.57 Log10 CFU/mL
- Viable counts in Log10 CFU/mL ([4]; 2 × MIC, 4 h): 4.48 Log10 CFU/mL
- Viable counts in Log10 CFU/mL ([4]; 2 × MIC, 6 h): 4.90 Log10 CFU/mL
- Viable counts in Log10 CFU/mL ([4]; 2 × MIC, 24 h): 3 Log10 CFU/mL
- Viable counts in Log10 CFU/mL ([4]; 2 × MIC, 0 h): 5.33 Log10 CFU/mL
- Viable counts in Log10 CFU/mL ([4]; 4 × MIC, 1 h): 5.34 Log10 CFU/mL
- Viable counts in Log10 CFU/mL ([4]; 4 × MIC, 2 h): 5.41 Log10 CFU/mL
- Viable counts in Log10 CFU/mL ([4]; 4 × MIC, 4 h): 5.28 Log10 CFU/mL
- Viable counts in Log10 CFU/mL ([4]; 4 × MIC, 6 h): 4.95 Log10 CFU/mL
- Viable counts in Log10 CFU/mL ([4]; 4 × MIC, 24 h): <2 Log10 CFU/mL
- Viable counts in Log10 CFU/mL ([4]; 4 × MIC, 0 h): 5.26 Log10 CFU/mL
- Viable counts, Staphylococcus aureus time kill study ([5]; 1 × MIC, 1 h): 5 Log10 CFU/mL
- Viable counts, Staphylococcus aureus time kill study ([5]; 1 × MIC, 2 h): <3 Log10 CFU/mL
- Viable counts, Staphylococcus aureus time kill study ([5]; 1 × MIC, 4 h): <3 Log10 CFU/mL
- Viable counts, Staphylococcus aureus time kill study ([5]; 1 × MIC, 6 h): <3 Log10 CFU/mL
- Viable counts, Staphylococcus aureus time kill study ([5]; 1 × MIC, 24 h): <1 Log10 CFU/mL
- Viable counts, Staphylococcus aureus time kill study ([5]; 1×MIC, time 0): 6.14 Log10 CFU/mL
- Viable counts, Staphylococcus aureus time kill study ([5]; 2 × MIC, 1 h): <3 Log10 CFU/mL
- Viable counts, Staphylococcus aureus time kill study ([5]; 2 × MIC, 2 h): <3 Log10 CFU/mL
- Viable counts, Staphylococcus aureus time kill study ([5]; 2 × MIC, 4 h): <3 Log10 CFU/mL
- Viable counts, Staphylococcus aureus time kill study ([5]; 2 × MIC, 6 h): <3 Log10 CFU/mL
- Viable counts, Staphylococcus aureus time kill study ([5]; 2 × MIC, 24 h): <1 Log10 CFU/mL
- Viable counts, Staphylococcus aureus time kill study ([5]; 2 × MIC, time 0): 6.20 Log10 CFU/mL
- Viable counts, Staphylococcus aureus time kill study ([5]; 4 × MIC, 1 h): <3 Log10 CFU/mL
- Viable counts, Staphylococcus aureus time kill study ([5]; 4 × MIC, 2 h): <3 Log10 CFU/mL
- Viable counts, Staphylococcus aureus time kill study ([5]; 4 × MIC, 4 h): <3 Log10 CFU/mL
- Viable counts, Staphylococcus aureus time kill study ([5]; 4 × MIC, 6 h): <3 Log10 CFU/mL
- Viable counts, Staphylococcus aureus time kill study ([5]; 4 × MIC, 24 h): <1 Log10 CFU/mL
- Viable counts, Staphylococcus aureus time kill study ([5]; 4 × MIC, time 0): 6.18 Log10 CFU/mL

Reference: patent US20140357713A1, “ANTIMICROBIAL COMPOUNDS AND METHODS OF USE” (NexMed Holdings, Inc., priority 2012, published 2014)
